# Measurements as given in patent US20260166039A1 (SCHRÖDINGER, INC., priority 2022, published 2026).
# Tests used:
# [1] = test system: phosphorylation of Cdc2 Y15 (Wee1 substrate) in A427 cells; experiment: Phosphorylated Cdc2 MSD Electrochemiluminescence Assay; format: cell-based; conditions: Homo sapiens, A-427, class symbols, read-out: A427 pCDC2 MSD IC50
# Procedure, shortened: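 A427 cells (RPMI 1640, 10% FBS) treated 20 h after plating with 3-fold serial compound dilutions, in duplicate, 37 °C, 5% CO2; total incubation 6 h. Lysate Cdc2 pY15 read by MSD electrochemiluminescence sandwich immunoassay; % remaining signal normalised to DMSO (high) and reference Wee1 inhibitor (low) controls.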
# Wee1 kinase domain = biological target: T1, Wee1 kinase domain (Homo sapiens, UniProt P30291); experiment: Wee1 Kinase Biochemical Assay (ADP-Glo); conditions: class symbols; 1 nM Wee1 enzyme, 15 uM ATP, 4 hours at 25° C.
# T1 construct: Wee1 kinase domain was purchased from Carna (catalog #05-177); purchased Carna 05-177
# T1 sequence (P30291 299-569 limits assumed): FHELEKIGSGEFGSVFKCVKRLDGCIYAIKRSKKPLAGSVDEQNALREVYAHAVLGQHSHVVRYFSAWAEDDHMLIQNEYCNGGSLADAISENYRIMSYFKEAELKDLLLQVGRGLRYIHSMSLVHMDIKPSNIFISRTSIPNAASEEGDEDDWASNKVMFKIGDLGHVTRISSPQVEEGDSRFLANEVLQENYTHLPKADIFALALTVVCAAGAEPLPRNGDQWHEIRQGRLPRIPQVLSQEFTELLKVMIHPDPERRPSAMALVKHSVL
# Procedure, shortened: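 Kinase domain (1 nM) incubated 4 h at 25 °C with 15 uM ATP and 2 ng/mL Poly(Lys,Tyr 4:1) in 40 mM Tris-HCl, 20 mM MgCl2, 0.1 mg/mL BSA, 2 mM DTT. ADP formation read by ADP-Glo luminescence; percent inhibition normalized to DMSO and saturating reference-inhibitor controls.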
SMILES,IC50 [1],IC50 (Wee1 kinase domain)
"CN1C[C@@H]2CN(c3ccc(Nc4ncc5c(n4)N(c4cccc(N6CCCC6=O)n4)[C@@H]4CC(C)(C)OC[C@]54C)cc3)C[C@@H]2C1 [Example 694, 1-(6-((4bR,8aR)-4b,7,7-trimethyl-2-((4-((3aR,6aS)-5-methylhexahydropyrrolo[3,4-c]pyrrol-2(1H)-yl)phenyl)amino)-4b,7,8,8a-tetrahydropyrano[3′,4′:4,5]pyrrolo[2,3-d]pyrimidin-9(5H)-yl)pyridin-2-yl)pyrrolidin-2-one]",100 to 1000 nM,< 10 nM
"CN1CC(c2ccc(Nc3ncc4c(n3)N(c3cccc(N5CCCC5=O)n3)[C@@H]3CC(C)(C)OC[C@]43C)cc2)C1 [Example 696, 1-(6-((4bR,8aR)-4b,7,7-trimethyl-2-((4-(1-methylazetidin-3-yl)phenyl)amino)-4b,7,8,8a-tetrahydropyrano[3′,4′:4,5]pyrrolo[2,3-d]pyrimidin-9(5H)-yl)pyridin-2-yl)pyrrolidin-2-one]",100 to 1000 nM,< 10 nM
"CN1CC(c2ccc(Nc3ncc4c(n3)N(c3cccc(N5CCOC5=O)n3)[C@@H]3CC(C)(C)OC[C@]43C)cc2)C1 [Example 698, 3-(6-((4bR,8aR)-4b,7,7-trimethyl-2-((4-(1-methylazetidin-3-yl)phenyl)amino)-4b,7,8,8a-tetrahydropyrano[3′,4′:4,5]pyrrolo[2,3-d]pyrimidin-9(5H)-yl)pyridin-2-yl)oxazolidin-2-one]",100 to 1000 nM,< 10 nM
"CN1[C@@H]2C[C@H]1CN(c1ccc(Nc3ncc4c(n3)N(c3cccc(N5CCOC5=O)n3)[C@@H]3CC(C)(C)OC[C@]43C)cc1)C2 [Example 700, 3-(6-((4bR,8aR)-4b,7,7-trimethyl-2-((4-((1R,5S)-6-methyl-3,6-diazabicyclo[3.1.1]heptan-3-yl)phenyl)amino)-4b,7,8,8a-tetrahydropyrano[3′,4′:4,5]pyrrolo[2,3-d]pyrimidin-9(5H)-yl)pyridin-2-yl)oxazolidin-2-one]",100 to 1000 nM,< 10 nM
"CN1[C@@H]2C[C@H]1CN(c1ccc(Nc3ncc4c(n3)N(c3cccc(N5CCCC5=O)n3)[C@@H]3CC(C)(C)OC[C@]43C)cc1)C2 [Example 703, 1-(6-((4bR,8aR)-4b,7,7-trimethyl-2-((4-((1R,5S)-6-methyl-3,6-diazabicyclo[3.1.1]heptan-3-yl)phenyl)amino)-4b,7,8,8a-tetrahydropyrano[3′,4′:4,5]pyrrolo[2,3-d]pyrimidin-9(5H)-yl)pyridin-2-yl)pyrrolidin-2-one]",100 to 1000 nM,< 10 nM
"CN1CCC(c2ccc(Nc3ncc4c(n3)N(c3cccc(N=S(C)(C)=O)c3)[C@@H]3CC(C)(C)OC[C@]43C)cn2)CC1 [Example 710, dimethyl((3-((4bR,8aR)-4b,7,7-trimethyl-2-((6-(1-methylpiperidin-4-yl)pyridin-3-yl)amino)-4b,7,8,8a-tetrahydropyrano[3′,4′:4,5]pyrrolo[2,3-d]pyrimidin-9(5H)-yl)phenyl)imino)-16-sulfanone]",1000 to 10000 nM,< 10 nM

# Now from value to compound:
IC50 [1],IC50 (Wee1 kinase domain),SMILES
100 to 1000 nM,< 10 nM,"CN1CC[C@@H]2CN(c3ccc(Nc4ncc5c(n4)N(c4cccc(N6CCOC6=O)n4)[C@@H]4CC(C)(C)OC[C@]54C)cc3)C[C@@H]21 [Example 705, 3-(6-((4bR,8aR)-4b,7,7-trimethyl-2-((4-((3aR,6aR)-1-methylhexahydropyrrolo[3,4-b]pyrrol-5(1H)-yl)phenyl)amino)-4b,7,8,8a-tetrahydropyrano[3′,4′:4,5]pyrrolo[2,3-d]pyrimidin-9(5H)-yl)pyridin-2-yl)oxazolidin-2-one]"
100 to 1000 nM,< 10 nM,"CN1CC2(C1)CN(c1ccc(Nc3ncc4c(n3)N(c3cccc(N5CCOC5=O)n3)[C@@H]3CC(C)(C)OC[C@]43C)cc1)C2 [Example 707, 3-(6-((4bR,8aR)-4b,7,7-trimethyl-2-((4-(6-methyl-2,6-diazaspiro[3.3]heptan-2-yl)phenyl)amino)-4b,7,8,8a-tetrahydropyrano[3′,4′:4,5]pyrrolo[2,3-d]pyrimidin-9(5H)-yl)pyridin-2-yl)oxazolidin-2-one]"
